Bridge positions count the residues as written; N and C are the ends. Square brackets hold non-standard residues; d marks the D form. Peptide text beside a SMILES is read from it. * marks the point of attachment. ξ: configuration not given here. ξPhe(4-guanidino) = N=C(N)Nc1ccc(CC(N)C(=O)O)cc1; Bip = N[C@@H](Cc1ccc(-c2ccccc2)cc1)C(=O)O; Phe(3-Me) = Cc1cccc(C[C@H](N)C(=O)O)c1; NH(CH2)12COOH = O=C(O)CCCCCCCCCCCCN*; Val(3-OH) = CC(C)(O)[C@H](N)C(=O)O; hArg = N=C(N)NCCCC[C@H](N)C(=O)O; 4Pal = N[C@@H](Cc1ccncc1)C(=O)O; Cha = N[C@@H](CC1CCCCC1)C(=O)O; Cit = NC(=O)NCCC[C@H](N)C(=O)O; Ile(3ξ) = CCC(C)[C@H](N)C(=O)O; aThr = C[C@H](O)[C@H](N)C(=O)O; Thr(3ξ) = CC(O)[C@H](N)C(=O)O; Carboxymethyl = O=C(O)C*; Orn = NCCC[C@H](N)C(=O)O; Pra = C#CC[C@H](N)C(=O)O; Aun = NCCCCCCCCCCC(=O)O; Dab = NCC[C@H](N)C(=O)O; Dap = NC[C@H](N)C(=O)O; AEEA = NCCOCCOCC(=O)O; ξDab = NCCC(N)C(=O)O
biological target: T1, PD-1/PD-L1 interaction (PE-labeled human PD-L1-Ig binding to Jurkat cell line over-expressing human PD-1) (Homo sapiens, UniProt Q15116); test: Jurkat-PD-1 Cell Binding High-Content Screening Assay (CBA); format: cell-based; details: Jurkat cell line over-expressing human PD-1; PE-labeled PD-L1-Ig 20 nM final; read-out: Jurkat hPD1-PDL1 IC50
T1 construct: expressed in transfected cells; host or cells: Jurkat
Summary of the method: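 Binding of fluorescent PD-L1-Ig (phycoerythrin on Ig tag, 20 nM final, 1 h) measured by high-content imaging of fixed, Hoechst-counterstained Jurkat-hPD-1 cells. Compound added 2 h at 37° C beforehand, in DMEM with 10% fetal calf serum.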

T1 sequence (Q15116 25-288): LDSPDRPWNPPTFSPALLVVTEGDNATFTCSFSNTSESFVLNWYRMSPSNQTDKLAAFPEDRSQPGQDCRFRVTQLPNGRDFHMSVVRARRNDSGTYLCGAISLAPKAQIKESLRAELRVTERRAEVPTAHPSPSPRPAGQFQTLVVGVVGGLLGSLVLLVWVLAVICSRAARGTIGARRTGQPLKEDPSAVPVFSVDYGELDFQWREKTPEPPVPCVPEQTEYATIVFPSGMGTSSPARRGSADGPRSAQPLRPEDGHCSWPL

Row | Structure (SMILES) | IC50 [nM]
1 | CC(C)C[C@H]1NC(=O)[C@H](CCCN)NC(=O)[C@H](C(C)C)NC(=O)[C@H](Cc2ccc(-c3ccccc3)cc2)NC(=O)[C@H](C(C)C)NC(=O)[C@H](Cc2c[nH]c3ccccc23)NC(=O)[C@H](CC(=O)O)NC(=O)[C@H](Cc2ccc(OCC(=O)O)cc2)NC(=O)[C@H](CN)NC(=O)CSC[C@@H](C(=O)NCCOCCOCC(=O)N[C@@H](CCCCN)C(=O)NCCCCCCCCCCC(=O)O)NC(=O)[C@H]([C@H](C)O)NC(=O)[C@H](C(C)C)NC(=O)[C@H](CC2CCCCC2)NC(=O)[C@H](CC(N)=O)NC1=O [Compound 3164] ({CH2CO}-[Dap]Y(Carboxymethyl)DWV[Bip]V[Orn][dL]N[Cha]V[aThr]C[AEEA]K[Aun]-OH; thioether N-14) | 29.9
2 | CCC(C)[C@@H]1NC(=O)[C@H](CC2CCCCC2)NC(=O)[C@H](CCN)NC(=O)[C@@H](CC(C)C)NC(=O)[C@H](CCCN)NC(=O)[C@H](C(C)CC)NC(=O)[C@H](Cc2ccc(-c3ccccc3)cc2)NC(=O)[C@H](CC(C)C)NC(=O)[C@H](Cc2c[nH]c3ccccc23)NC(=O)[C@H](CC(=O)O)NC(=O)[C@H](Cc2ccc(OCC(=O)O)cc2)NC(=O)C(Cc2ccc(N=C(N)N)cc2)NC(=O)CSC[C@@H](C(=O)N[C@@H](CC(N)=O)C(=O)NCCOCCOCC(=O)NCCCCCCCCCCC(=O)O)NC(=O)[C@H](CO)NC1=O (stereo partly drawn) [Compound 3117] ({CH2CO}-[ξPhe(4-guanidino)]Y(Carboxymethyl)DWL[Bip][Ile(3ξ)][Orn][dL][Dab][Cha][Ile(3ξ)]SCN[AEEA][Aun]-OH; thioether N-14) | 160
3 | Cc1cccc(C[C@@H]2NC(=O)[C@H](CC(=O)O)NC(=O)[C@H](Cc3ccc(OCC(=O)O)cc3)NC(=O)[C@H](CCCNC(=N)N)NC(=O)CSC[C@@H](C(=O)N[C@@H](CCN)C(=O)NCCCCCCCCCCC(=O)O)NC(=O)[C@H](CO)NC(=O)[C@H](C(C)C)NC(=O)[C@H](CC3CCCCC3)NC(=O)[C@H](CCN)NC(=O)[C@@H](CC(C)C)NC(=O)[C@H](CCCN)NC(=O)[C@H](Cc3ccc(OCC(=O)O)cc3)NC(=O)[C@H](Cc3ccc(-c4ccccc4)cc3)NC(=O)[C@H](Cc3ccc(O)cc3)NC2=O)c1 [Compound 2082] ({CH2CO}-RY(Carboxymethyl)D[Phe(3-Me)]Y[Bip]Y(Carboxymethyl)[Orn][dL][Dab][Cha]VSC[Dab][Aun]-OH; thioether N-14) | 22.7
4 | CC(C)C[C@H]1NC(=O)[C@H](CCCCN)NC(=O)[C@H](C(C)C)NC(=O)[C@H](Cc2ccc(-c3ccccc3)cc2)NC(=O)[C@H](C(C)C)NC(=O)[C@H](Cc2c[nH]c3ccccc23)NC(=O)[C@H](CC(=O)O)NC(=O)[C@H](Cc2ccc(OCC(=O)O)cc2)NC(=O)[C@H](CC(N)=O)NC(=O)CSC[C@@H](C(=O)NCCOCCOCC(=O)N[C@@H](CCCN)C(=O)NCCCCCCCCCCC(=O)O)NC(=O)[C@H](CO)NC(=O)[C@H](C(C)C)NC(=O)[C@H](CC2CCCCC2)NC(=O)[C@H](CCN)NC1=O [Compound 3070] ({CH2CO}-NY(Carboxymethyl)DWV[Bip]VK[dL][Dab][Cha]VSC[AEEA][Orn][Aun]-OH; thioether N-14) | 5.1
5 | CC(C)C[C@H]1NC(=O)[C@H](CCCN)NC(=O)[C@H](C(C)C)NC(=O)[C@H](Cc2ccc(-c3ccccc3)cc2)NC(=O)[C@H](C(C)C)NC(=O)[C@H](Cc2c[nH]c3ccccc23)NC(=O)[C@H](CC(=O)O)NC(=O)[C@H](Cc2ccc(OCC(=O)O)cc2)NC(=O)[C@H](CCCCNC(=N)N)NC(=O)CSC[C@@H](C(=O)NCC(=O)NCCOCCOCC(=O)N[C@@H](CCCN)C(=O)NCCCCCCCCCCC(=O)O)NC(=O)[C@H](CN)NC(=O)[C@H](C(C)C)NC(=O)[C@H](CC2CCCCC2)NC(=O)[C@H](CCN)NC1=O [Compound 3196] ({CH2CO}-[hArg]Y(Carboxymethyl)DWV[Bip]V[Orn][dL][Dab][Cha]V[Dap]CG[AEEA][Orn][Aun]-OH; thioether N-14) | 11.6
6 | Cc1cccc(C[C@@H]2NC(=O)[C@H](CC(=O)O)NC(=O)[C@H](Cc3ccc(OCC(=O)O)cc3)NC(=O)[C@H](CN)NC(=O)CSC[C@@H](C(=O)N[C@@H](CCCCN)C(=O)NCCCCCCCCCCC(=O)O)NC(=O)[C@@H](CO)NC(=O)[C@H](C(C)C)NC(=O)[C@H](CC(C)C)NC(=O)[C@H](CCN)NC(=O)[C@@H](CC(C)C)NC(=O)[C@H](CCCN)NC(=O)[C@H](C(C)C)NC(=O)[C@H](Cc3ccc(-c4ccccc4)cc3)NC(=O)[C@H](C(C)C)NC2=O)c1 [Compound 2009] ({CH2CO}-[Dap]Y(Carboxymethyl)D[Phe(3-Me)]V[Bip]V[Orn][dL][Dab]LV[dS]CK[Aun]-OH; thioether N-14) | 17.2
7 | CC[C@H](C)[C@@H]1NC(=O)[C@H](Cc2ccc(-c3ccccc3)cc2)NC(=O)[C@H](C(C)C)NC(=O)[C@H](Cc2cccc(C)c2)NC(=O)[C@H](CC(=O)O)NC(=O)[C@H](Cc2ccc(OCC(=O)O)cc2)NC(=O)[C@H](CN)NC(=O)CSC[C@@H](C(=O)N[C@@H](CCN)C(=O)NCCOCCOCC(=O)NCCCCCCCCCCC(=O)O)NC(=O)[C@H](CN)NC(=O)[C@H](C(C)C)NC(=O)[C@H](CC2CCCCC2)NC(=O)[C@H](CCN)NC(=O)[C@@H](CC(C)C)NC(=O)[C@H](CCCN)NC1=O [Compound 2634] ({CH2CO}-[Dap]Y(Carboxymethyl)D[Phe(3-Me)]V[Bip]I[Orn][dL][Dab][Cha]V[Dap]C[Dab][AEEA][Aun]-OH; thioether N-14) | 14.1
8 | CC(C)C[C@H]1NC(=O)[C@H](CCCN)NC(=O)[C@H](C(C)C)NC(=O)[C@H](Cc2ccc(-c3ccccc3)cc2)NC(=O)[C@H](C(C)C)NC(=O)[C@H](Cc2c[nH]c3ccccc23)NC(=O)[C@H](CC(=O)O)NC(=O)[C@H](Cc2ccc(OCC(=O)O)cc2)NC(=O)[C@H](Cc2ccc(OCC(=O)O)cc2)NC(=O)CSC[C@@H](C(=O)NCCOCCOCC(=O)N[C@@H](CCCCN)C(=O)NCCCCCCCCCCC(=O)O)NC(=O)[C@H](CCCN)NC(=O)[C@H](C(C)C)NC(=O)[C@H](CC2CCCCC2)NC(=O)[C@H](CCN)NC1=O [Compound 2599] ({CH2CO}-Y(Carboxymethyl)Y(Carboxymethyl)DWV[Bip]V[Orn][dL][Dab][Cha]V[Orn]C[AEEA]K[Aun]-OH; thioether N-14) | 8.2
9 | C#CC[C@H](NC(=O)COCCOCCNC(=O)[C@H](CCN)NC(=O)[C@@H]1CSCC(=O)N[C@@H](Cc2ccncc2)C(=O)N[C@@H](Cc2ccc(OCC(=O)O)cc2)C(=O)N[C@@H](CC(=O)O)C(=O)N[C@@H](Cc2c[nH]c3ccccc23)C(=O)N[C@@H](C(C)C)C(=O)N[C@@H](Cc2ccc(-c3ccccc3)cc2)C(=O)N[C@@H]([C@@H](C)CC)C(=O)N[C@@H](CCCN)C(=O)N[C@H](CC(C)C)C(=O)N[C@@H](CCN)C(=O)N[C@@H](CC(C)C)C(=O)N[C@@H](C(C)C)C(=O)N[C@@H]([C@@H](C)O)C(=O)N1)C(=O)NCCCCCCCCCCC(=O)O [Compound 1206] ({CH2CO}-[4Pal]Y(Carboxymethyl)DWV[Bip]I[Orn][dL][Dab]LVTC[Dab][AEEA][Pra][Aun]-OH; thioether N-14) | 19.8

Results, then the compound that gave them:

Row | IC50 [nM] | Structure (SMILES)
10 | 70.9 | CC(=O)NCCCC[C@@H]1NC(=O)[C@H](Cc2ccc(-c3ccccc3)cc2)NC(=O)[C@H](Cc2ccc(O)cc2)NC(=O)[C@H](Cc2cccc(C)c2)NC(=O)[C@H](CC(=O)O)NC(=O)[C@H](Cc2ccc(OCC(=O)O)cc2)NC(=O)[C@H](CCN)NC(=O)CSC[C@@H](C(=O)N[C@@H](CCCN)C(=O)N[C@@H](CO)C(=O)NCCCCCCCCCCC(=O)O)NC(=O)[C@H](CCC(=O)O)NC(=O)[C@H](C(C)O)NC(=O)[C@H](CC2CCCCC2)NC(=O)[C@H](CCN)NC(=O)[C@@H](CC(C)C)NC(=O)[C@H](CCCN)NC1=O (stereo partly drawn) [Compound 3638] ({CH2CO}-[Dab]Y(Carboxymethyl)D[Phe(3-Me)]Y[Bip]K(Ac)[Orn][dL][Dab][Cha][Thr(3ξ)]EC[Orn]S[Aun]-OH; thioether N-14)
11 | 14.4 | CC(=O)NCCCC[C@@H]1NC(=O)[C@H](Cc2ccc(-c3ccccc3)cc2)NC(=O)[C@H](Cc2ccc(O)cc2)NC(=O)[C@H](Cc2cccc(C)c2)NC(=O)[C@H](CC(=O)O)NC(=O)[C@H](Cc2ccc(OCC(=O)O)cc2)NC(=O)[C@H](CCCNC(=N)N)NC(=O)CSC[C@@H](C(=O)N[C@@H](CCN)C(=O)NCCCCCCCCCCC(=O)O)NC(=O)[C@H](C(C)O)NC(=O)[C@H](C(C)C)NC(=O)[C@H](CC2CCCCC2)NC(=O)[C@H](CCN)NC(=O)[C@@H](CC(C)C)NC(=O)[C@H](CCCN)NC1=O (stereo partly drawn) [Compound 3508] ({CH2CO}-RY(Carboxymethyl)D[Phe(3-Me)]Y[Bip]K(Ac)[Orn][dL][Dab][Cha]V[Thr(3ξ)]C[Dab][Aun]-OH; thioether N-14)
12 | 38.2 | Cc1cccc(C[C@@H]2NC(=O)[C@H](CC(=O)O)NC(=O)[C@H](Cc3ccc(OCC(=O)O)cc3)NC(=O)[C@H](C(C)O)NC(=O)CSC[C@@H](C(=O)NC(CCN)C(=O)NCCCCCCCCCCC(=O)O)NC(=O)[C@H](C(C)O)NC(=O)[C@H](C(C)C)NC(=O)[C@H](CC3CCCCC3)NC(=O)[C@H](Cc3cnc[nH]3)NC(=O)[C@@H](CC(C)C)NC(=O)[C@H](CCCN)NC(=O)[C@H](CCCNC(N)=O)NC(=O)[C@H](Cc3ccc(-c4ccccc4)cc3)NC(=O)[C@H](C(C)C)NC2=O)c1 (stereo partly drawn) [Compound 3503] ({CH2CO}-[Thr(3ξ)]Y(Carboxymethyl)D[Phe(3-Me)]V[Bip][Cit][Orn][dL]H[Cha]V[Thr(3ξ)]C[ξDab][Aun]-OH; thioether N-14)
13 | 4.7 | Cc1cccc(C[C@@H]2NC(=O)[C@H](CC(=O)O)NC(=O)[C@H](Cc3ccc(OCC(=O)O)cc3)NC(=O)[C@H](CCN)NC(=O)CSC[C@@H](C(=O)N[C@@H](CCN)C(=O)NCCOCCOCC(=O)NCCOCCOCC(=O)NCCCCCCCCCCCCC(=O)O)NC(=O)[C@H](Cc3cnc[nH]3)NC(=O)[C@H](C(C)(C)O)NC(=O)[C@H](CC3CCCCC3)NC(=O)[C@H](CCN)NC(=O)[C@@H](CC(C)C)NC(=O)[C@H](CCCN)NC(=O)[C@H](Cc3ccc(OCC(=O)O)cc3)NC(=O)[C@H](Cc3ccc(-c4ccccc4)cc3)NC(=O)[C@H](Cc3ccc(OCC(=O)O)cc3)NC2=O)c1 [Compound 3760] ({CH2CO}-[Dab]Y(Carboxymethyl)D[Phe(3-Me)]Y(Carboxymethyl)[Bip]Y(Carboxymethyl)[Orn][dL][Dab][Cha][Val(3-OH)]HC[Dab][AEEA][AEEA]-{NH(CH2)12COOH}; thioether N-14)
